Test [1] deals with T1, BB-loop and C-terminal region of the TIR domain of TLR4 (Homo sapiens, UniProt O00206).
T1 construct: purchased Peptron, Inc; host or cells: chemical synthesis
Nature of the test: Surface plasmon resonance (SPR) assay. In kind it is binding. As to conditions: conclusion of Experimental Example 8; no SPR constants printed. How it is done: Surface plasmon resonance assay was performed using a ProteOn XPR36 instrument (Bio-Rad Laboratories, Inc.) with a ProteOn NLC sensor chip. Specifically, a synthetic peptide encoding BB-loop ([…]) (SEQ ID NO: 54) and C-terminal region ([…]) (SEQ ID NO: 55) of the TIR domain was immobilized on the surface of the NLC sensor chip using NeutrAvidin bound to the GLC polymer layer. For a control, PBS supplemented with 0.05% Tween 20, which is a running buffer, was flowed. […] After the measurement, the surface of the sensor chip was regenerated using 0.85% phosphoric acid or PBST. […] The equilibrium dissociation constant KD was calculated using the equation KD=Kd/Ka.
(In general: SPR reads the build-up and loss of mass on a sensor chip optically.)

Test [2] has as its system NF-κB (p-p65). Nature of the test: Confocal microscopy of NF-κB activity (p-p65) in LPS-treated RAW 264.7 cells. The test is classed as cell-based, mouse. The note with it: LPS together with TIP1, FIG. 3. How it is done: RAW 264.7 cells and THP1 cells were dispensed into 24-well plates to a cell number of 2×10^5 cells/well, and then grown in an incubator overnight. Subsequently, combined treatment with TIP1 and LPS was performed. After 24 hours, the RAW 264.7 cells and the THP1 cells were fixed with 3.7% formaldehyde (Sigma-Aldrich Co. LLC) for 15 minutes, and immersed into 0.2% Triton X-100 (AMRESCO, Solon, Ohio, USA) for 15 minutes. Then, washing with PBS was performed three times and blocking with 2% BSA solution was performed. The blocked cells were incubated for 2 hours with TIP1-FITC (25 μM; Peptron, Inc., Daejeon, Korea), p-p65, TLR4, Myd88, TOM20 (1:1000; Santa Cruz Biotechnology Inc.), and NLRP3 (Adipogen) antibodies. Then, washing with PBS was performed three times. Subsequently, the cells were incubated with AlexaFluor […] and/or 488 and/or 546-conjugated secondary antibodies (Invitrogen, Carlsbad, Calif., USA) for 1 hour, and washed three times with PBS. Subsequently, the cells were stained at room temperature for 15 minutes using 5 μM Hoechst 33258 (Sigma-Aldrich Co.), and the number of the fluorescently stained cells was counted using a confocal laser scanning microscope (LSM-700, Carl Zeiss MicroImaging GmbH). The images were analyzed using Zen 2009 software.
The results are illustrated in FIG. 3.

Test [3] has as its system LPS-injected C57BL/6J mice. Nature of the test: Plasma cytokine secretion in LPS-injected mice. In kind it is in vivo, mouse. The note with it: TIP1 10 nmol/g i.p., 1 hour later LPS 5 μg/g, blood 1 or 2 hours. On the procedure:
All animal experiments were conducted under approval of the Institutional Animal Care and Use Committee (KHNMC AP 2016-006). […] The control was injected with the same volume of PBS. Subsequently, the plasma was isolated through centrifugation from the mouse blood and stored at −80° C. until analysis of secretion levels. TNF-α, IL-12p40 (diluted at 1:100), and IL-6 (diluted at 1:100) levels in the plasma were measured using mouse TNF-α, IL-12p40, IL-6 ELISA MAX Deluxe ELISA kits (BioLegend, San Diego, Calif., USA). Absorbance was measured at 450 nm using a microplate reader spectrophotometer (Molecular Devices In.), and the results were analyzed using Softmax Pro 5.3 software (Molecular Devices Inc.). The results are illustrated in FIGS. 14(a)-14(c).

In test [4] the test system is NLRP3 inflammasome. Nature of the test: Western blotting of NLRP3 inflammasome molecules in LPS/ATP-treated mBMDM cells. The test is classed as cell-based, mouse. (Immunoblotting shows a protein as a band on a membrane.)
The subject of test [5] is hPBMC cells. Nature of the test: NO secretion in LPS-treated hPBMC cells. In kind it is cell-based, human. As to conditions: together with LPS, FIG. 12(b).
Test [6] has as its system RAW 264.7 cells. The experiment in a line: Intracytoplasmic NO and ROS (DAF-FM, DCF-DA) in RAW 264.7 cells. As to conditions: TIP1 and LPS. In kind it is cell-based, mouse. How it is done:
RAW 264.7 cells were dispensed into 6-cm dishes (SPL Life Sciences, Pocheon, Korea) to a cell number of 1×10^6 cells/well and incubation was performed overnight. Subsequently, treatment with TIP1 was performed and respective staining with DAF-FM and DCF-DA (Thermo Fisher Scientific, Inc.) was performed. Then, incubation was performed for 1 hour. Thereafter, the cells were collected by centrifugation at 200×g for 5 minutes, transferred to brown tubes, and stored in PBS at a temperature of 4° C. The intensities of DAF-FM, DCF-DA fluorescent materials were measured using FACSAria III with Diva software (BD Biosciences), and quantified.
In addition, according to the method described in Example 2-7, a NO level in the culture supernatant of RAW 264.7 cells was measured using a NO detection kit. The results are illustrated in FIGS. 5(a)-5(c).

The test system of test [7] is LPS-induced sepsis model BALB/c mice. The experiment in a line: Survival rate in LPS-induced sepsis model. The test is classed as in vivo, mouse. On the procedure:
The control was injected with the same volume of PBS. The results are illustrated in FIG. 18.

For test [8], the system named is TLR7/8. The experiment in a line: TNF-α secretion in RAW 264.7 cells with R848. The test is classed as cell-based, mouse.
Test [9] concerns NLRP3 inflammasome. The experiment in a line: IL-1β secretion (ELISA) in LPS/ATP-treated THP1 cells. The test is classed as cell-based, human. The note with it: TIP1 and LPS/ATP.
The test system of test [10] is liver tissues of C57BL/6J mice. The experiment in a line: Cytokine expression in liver tissue of LPS-treated mice (Western blotting). The test is classed as in vivo, mouse. The note with it: LPS and TIP1, 2 hours.
The mark [11] stands for this setting: severe sepsis model, LPS 10 μg/g, TIP1 10 nmol/g.

As to RQIKIWFQNRRMKWKKSHCRVLLI (TIP1), the “binding to TIR domain regions of TLR4” value in test [1] is “binding to the C-terminal tail and the BB loop among the TIR domains of TLR4”. The “NF-κB activity (LPS-induced p65 phosphorylation level in the nucleus)” value in [2] is “NF-κB activity was decreased”. In test [3], the “secretion level of IL-6 in plasma” value is listed as “remarkably decreased”, the “secretion level of IL-12p40 in plasma” value is given as “remarkably decreased” and the “secretion level of TNF-α in plasma” value is reported as “remarkably decreased”. Further, in test [4], the “intracellular expression level of NLRP3” value is recorded as “remarkably decreased”, the “intracellular expression level of active caspase-1 (10 kDa)” value is given as “remarkably decreased” and the “intracellular expression level of mature IL-1β (17 kDa)” value is “remarkably decreased”. Further, the NO secretion level entry in test [5] is given as “highest decreasing effect on NO secretion level”. Besides, the “generation level of NO in the cytoplasm” value in test [6] (DAF-FM) is reported as “effectively decreased”. For the same sequence, the “generation level of ROS in the cytoplasm” value in [6] (DCF-DA) is given as “effectively decreased”. Besides, the “survival rate compared with only LPS” value in test [7] (BALB/c mice, TIP1 10 nmol/g and LPS 5 or 10 μg/g, 5 days) is recorded as “increased survival rate”. In addition, the “survival rate maintained for 5 days” value in test [7] (mild sepsis model, LPS 5 μg/g, TIP1 10 nmol/g) came out at 30%. In [7] (setting [11]), the “decrease of survival rate after two days” value is reported as 90% and the “survival rate maintained for one day” value is reported as 100%. In test [8], the “secretion level of TNF-α” value was “decreased”. Moreover, the “secretion level of IL-1β” value in test [9] is given as “decreased”. In [10], the “LPS-induced expression level of IL-6 in liver tissue” value is recorded as “remarkably decreased” and the “LPS-induced expression level of TNF-α in liver tissue” value is on record as “remarkably decreased”.

For the origin of these results see US11352399B2, “Peptide for toll-like receptor (TLR) inhibition and pharmaceutical composition comprising same” (GENESEN CO., LTD., priority 2017, dated 2022).
